This is an account of results in the NIST ThermoML archive (doi:10.1016/j.fluid.2012.11.029).

For series [1] the following is noted: Crystal; DTA.
Series [2] in a line: Molar enthalpy of transition or fusion. The note with it: Crystal; DSC.

Numbers after ± are expanded uncertainties.

Turning to `NNC(=O)c1ccncc1` [isonicotinic acid hydrazide], the Normal melting temperature in series [1] amounted to 172.69 ± 1.1 °C. Moreover, in series [2], the “Molar enthalpy of transition or fusion” value was found to be 6.67 ± 0.191 kcal/mol.

Consider `CCCCCCCCCC[N+](C)(C)CCCCCCCCCC.O=[N+]([O-])[O-]` [Didecyldimethylammonium nitrate], for which the Normal melting temperature in series [1] is 31.7 ± 1.1 °C. Besides, the “Molar enthalpy of transition or fusion” value in series [2] was found to be 2.33 ± 0.0789 kcal/mol.

Consider `NC(=O)c1cnccn1` [pyrazinecarboxamide], for which, in series [1], the Normal melting temperature turned out to be 188.27 ± 1.1 °C. In addition, the “Molar enthalpy of transition or fusion” value in series [2] is 6.72 ± 0.191 kcal/mol.
